Data from patent US20050187288A1, “Beta-lapachone and methods of treating cancer” (priority 2004, published 2005).
Read-outs that look alike come from different tables or passages of the source.

Columns and labels:
[1] = test system: SK-MEL-28; assay: cells; settings: Homo sapiens, SK-MEL-28, read-out: LC50 (Replicate Results), SK-MEL-28, 4 hour exposure, colonies after 14-21 days
Method: (§1) Control plates received the same volume of DMSO alone. After a 4 hour exposure the drug was carefully removed, and drug-free medium could be added. […] Colonies of greater than 50 cells were scored as survivors. Cells were maintained at 37° C. in 5% CO2 in complete humidity.

[2] = test system: normal breast epithelial cells (MCF-10A); assay: Colony formation assay, cancer vs normal breast cells; assay type: cell-based, human; settings: 4 h treatment
From the text: After 10-20 days, cells were fixed and stained with modified Wright-Giemsa stain.

[3] = test system: A549 human lung cancer cells; settings: 60 mg/kg IP every three days, 8 treatments
Method: Athymic female nude mice (Ncr) were inoculated subcutaneously with 4×10^6 A549 human lung cancer cells, and the tumors were allowed to grow to 50 mm^3 in size. The animals were randomized into three groups of seven animals per group. […] Mean tumor volume was then analyzed.

[4] = test system: human Panc-1 pancreatic cancer cells; assay type: in vivo, mice
Method: The animals were randomized into three groups. […] Mean tumor volume was then analyzed.

[5] = Study 1B: dose-range-finding single dose intravenous toxicity study in rats
From the text: In Study No. 1B, five groups of six adult Sprague-Dawley rats (three male and three female) were randomized to treatment groups and treated via intravenous infusion as shown in
Other observations included clinical signs, body weights and food consumption. On Day 8, animals were anesthetized with CO2 and blood for testing was collected by cardiocentesis, then animals were euthanized by CO2 asphyxiation and subjected to gross necropsy with histopathological evaluation performed on major organs (lungs, heart, liver, brain, spleen and kidneys).

[6] = Study 5B: four week intravenous toxicity study in rats; settings: for creatine kinase elevation: Day 1
From the text: Blood samples were taken for hematology and clinical chemistry (Days 1, 15 and 24) and coagulation (Day 24 only) and clinical chemistry evaluation.

[7] = test system: HCT-116; assay: cells; settings: Homo sapiens, HCT-116, read-out: LC50 (Replicate Results), HCT-116, 4 hour exposure, colonies after 14-21 days
Method: as §1
Control plates received the same volume of DMSO alone. After a 4 hour exposure the drug was carefully removed, and drug-free medium was added. […] Colonies of greater than 50 cells were scored as survivors. Cells were maintained at 37° C. in 5% CO2 in complete humidity. Each “Replicate Result” represents the result of a separate experiment.

[8] = test system: SK-OV-3; settings: human, 4 h
Method: as §1

[9] = Reversibility of binding to human plasma proteins; assay type: in vitro ADME; settings: pooled human plasma, dialyzed three times against fresh plasma, 37° C., read-out: fraction in plasma reversibly bound to plasma proteins
Method: The spiked plasma was incubated at 37° C. for 1 h, and then was dialyzed three times against fresh plasma aliquots at 37° C.

[10] = Pharmacokinetic profile of intraperitoneal dosing in mice, Lipiodol formulation; settings: IP 150 mg/m^2 in Lipiodol
Method: A study was performed to determine the pharmacokinetic profile of intraperitoneal (IP) dosing in mice.

[11] = test system: CAOV-3; assay: cells; settings: Homo sapiens, Caov-3, read-out: LC50 (Replicate Results), CAOV-3, 4 hour exposure, colonies after 14-21 days
Method: as §1

[12] = in vivo
[13] = Study 2A: repetitive weekly intravenous toxicity study in dogs; settings: for decreased hemoglobin: Day 23
From the text: On Day 23 of the study, 4 animals/sex/group were euthanized (barbiturate overdose) followed by exsanguination and subjected to necropsy as described below.

[14] = test system: DU-145; assay: cells; settings: Homo sapiens, DU-145, read-out: LC50 (Replicate Results), DU-145, 4 hour exposure, colonies after 14-21 days
Method: as §1

[15] = Study 1A: repetitive weekly intravenous toxicity study in rats
[16] = Study 3A: neuropharmacological profile in rats
Method: In Study No. 3A, four groups of ten male Sprague-Dawley rats were dosed with a single 1 hour intravenous infusion via the tail vein at doses of 0 (vehicle), 5, 25, and 60 mg/kg as shown in Table 12.
Following dosing, animals were placed in a fixed environment consisting of a Plexiglas square, fitted with a lid and placed on absorbent paper to detect excretions.
Body temperatures were taken on all animals at 15 minutes following dose administration.

[17] = Pharmacokinetic data from toxicology study in dogs, one-hour intravenous infusion; assay type: in vivo; settings: both sexes, dog
Method: In this study, two dogs (one male, one female) were administered β-lapachone intravenously in the HPBCD formulation over one hour. The animals received escalating doses of 5, 15, 30 and 45 mg/kg, with three to four days between doses. The mean response of the two dogs is shown at each dose level. […] Doses up to and including 30 mg/kg produced no toxicity.

[18] = Study 6B: two week intravenous repetitive dose toxicity study in rats; settings: 45 mg/kg, one animal, Day 15

For `CC1(C)CCC2=C(O1)c1ccccc1C(=O)C2=O` [β-lapachone, 3,4-dihydro-2,2-dimethyl-2H-naphtho [1,2-b]pyran-5,6-dione], the CC50 [1] was 2400 nM, the number of colonies [2] was “no reduction in the number of colonies” and the “reduction of mean tumor volume” value [3] was “approximately 50%”. For the same compound, the mean tumor volume ([4]; 40 and 60 mg/kg IP every three days, 5 treatments) was “reduced the mean tumor volume”, the toxicity ([4]; mouse, in vivo) was “No sign of significant toxicity” and the clinical signs ([5]; 60 mg/kg, 1-2 hours after dosing, resolved by Day 2) was “transient clinical signs”. For the same compound, the histopathological findings ([5]; 75 mg/kg group) was “Minimal to mild hepatocellular vacuolation and renal tubular epithelial pallor and attenuation”, the “mortality and clinical signs” value ([5]; 30 or 45 mg/kg dose groups) was “No mortality or clinical signs of toxicity” and the “hematology and serum chemistry values” ([5]; all groups) was “generally unremarkable”. For the same compound, the NOEL ([5]; single one-hour intravenous dose at 3 mg/ml, male and female rats) was 45 mg/kg, the “mortality and clinical signs” value ([6]; 30 mg/kg dose group) was “No mortality or clinical signs of toxicity” and the creatine kinase elevation ([6]; 30 mg/kg) was 2 fold upper limit of normal. For the same compound, the creatine kinase elevation ([6]; 45 mg/kg) was 4 fold upper limit of normal, the reticulocyte count ([6]; high dose group (45 mg/kg), Day 15, controls 2.1%) was 4.1% and the CC50 [7] was 2290 nM. For the same compound, the CC50 [8] was 1290 nM, the fraction unbound at 10 μM [9] was at most 0.35 and the peak plasma level [10] was “approximately 8 μM”. For the same compound, the “time at which peak plasma levels were achieved” value [10] was “within one-half hour”, the CC50 [11] was 1560 nM and the “doses without significant toxicity” value ([12]; Sprague-Dawley (Hsd:SD) rats, Beagle dogs, rat and dog, iv, 4 weeks) was “less than 270 mg/m^2”. For the same compound, the “bone marrow suppression, gastrointestinal toxicity, alopecia” value [12] was “no evidence of bone marrow suppression, gastrointestinal toxicity or alopecia”, the “major organ toxicity (myelosuppression, hepatic, renal, neurotoxicity, cardiotoxicity)” value [12] was “No evidence of major organ toxicity” and the findings ([13]; 15 mg/kg and 35 mg/kg) was “signs of reversible extravascular hemolysis”. The bilirubin ([13]; Days 2 and 23, resolved by Day 37) was “dose-dependent slight increase”, the ophthalmologic findings ([13]; dog, in vivo) was “no drug-related ophthalmologic findings” and the “splenic enlargement (animals)” value ([13]; high-dose (35 mg/kg)) was 3/8. For the same compound, the decreased hemoglobin ([13]; high-dose (35 mg/kg)) was about 5 g/dL, the “mean decrease in body weight” value ([13]; high-dose (35 mg/kg), females) was −4% and the “mean decrease in body weight” value ([13]; high-dose (35 mg/kg), males) was −7%. The “splenic enlargement (animals)” value ([13]; mid-dose (15 mg/kg)) was 5/8, the decreased hemoglobin ([13]; mid-dose (15 mg/kg)) was about 3 g/dL and the CC50 [14] was 1100 nM. For the same compound, the NOEL ([15]; Study 1A) was 10 mg/kg/dose, the “bilirubin (slight increase)” value ([15]; high dose animals, Days 2 and 23, ULN 0.27 mg/dl) was 0.33 mg/dL and the decrease in hemoglobin ([15]; mid- and high-dose animals, normalized by Day 37) was under 2 g/dL. The “animals that died during the infusion” value ([16]; 60 mg/kg at 6 mg/ml) was “Five of the ten animals”, the mean body temperature ([16]; 60 mg/kg, 15-minutes post dosing) was 34.6 °C and the NOEL ([16]; single intravenous dose, male Sprague Dawley rats) was 25 mg/kg. For the same compound, the AUC ([17]; in vivo, 5 mg/kg) was 13600 ng·h/mL, the half-life ([17]; plasma, intravenous, across the dose range, read-out: terminal half-life (converted)) was about 16 h and the Cmax ([17]; plasma, iv, 5 mg/kg, 60 min infusion) was 750 ng/mL. For the same compound, the AUC ([17]; plasma, iv, 5 mg/kg, 60 min infusion, mean of two dogs, read-out: AUC) was 13600 ng·h/mL, the half-life ([17]; plasma, iv, 5 mg/kg, 60 min infusion, read-out: T1/2) was about 16 h and the Cmax ([17]; plasma, iv, 15 mg/kg, 60 min infusion) was 1150 ng/mL. The AUC ([17]; plasma, iv, 15 mg/kg, 60 min infusion, mean of two dogs, read-out: AUC) was 20200 ng·h/mL, the half-life ([17]; plasma, iv, 15 mg/kg, 60 min infusion, read-out: T1/2) was about 16 h and the Cmax ([17]; plasma, iv, 30 mg/kg, 60 min infusion) was 1480 ng/mL. The AUC ([17]; plasma, iv, 30 mg/kg, 60 min infusion, mean of two dogs, read-out: AUC) was 26000 ng·h/mL, the half-life ([17]; plasma, iv, 30 mg/kg, 60 min infusion, read-out: T1/2) was about 16 h and the total bilirubin ([18]; ULN 0.27) was 0.46 mg/dL. It also gave a blood urea nitrogen ([18]; ULN 19) of 40 mg/dL and a creatinine phosphokinase ([18]; ULN 513) of 553 IU/L.
